In patent publication US12617783B2, “Heterocyclic GLP-1R agonists” (BIOMEA FUSION, INC., priority 2024, dated 2026):
Like-named read-outs stand apart in the source and are kept apart here.

Target: T1, human GLP-1R (Homo sapiens, UniProt P43220)
T1 construct: host or cells: HEK293
Experiment: GLP-1R cAMP assay (Example B1a, HTRF, 30 min at room temperature)
Assay type: cell-based
Details: for potency: bridge atoms configured out of the plane or toward the reader
Procedure, shortened: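 Competitive HTRF read-out of cAMP after 30 min room-temperature stimulation, BETP absent, of human GLP-1R-HEK293 cells (1,000/well) in HEPES buffer with 500 μM IBMX and 0.1% BSA. Activation normalised to GLP-1(7-37) positive control. EC50 from 4-parameter non-linear regression.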

[1] = cAMP accumulation in HEK293 expressing human GLP-1R, no BETP, 30 min room temperature (Method B1a, compounds ID 1-609), Table 1, read-out: EC50

T1 sequence (P43220 24-463): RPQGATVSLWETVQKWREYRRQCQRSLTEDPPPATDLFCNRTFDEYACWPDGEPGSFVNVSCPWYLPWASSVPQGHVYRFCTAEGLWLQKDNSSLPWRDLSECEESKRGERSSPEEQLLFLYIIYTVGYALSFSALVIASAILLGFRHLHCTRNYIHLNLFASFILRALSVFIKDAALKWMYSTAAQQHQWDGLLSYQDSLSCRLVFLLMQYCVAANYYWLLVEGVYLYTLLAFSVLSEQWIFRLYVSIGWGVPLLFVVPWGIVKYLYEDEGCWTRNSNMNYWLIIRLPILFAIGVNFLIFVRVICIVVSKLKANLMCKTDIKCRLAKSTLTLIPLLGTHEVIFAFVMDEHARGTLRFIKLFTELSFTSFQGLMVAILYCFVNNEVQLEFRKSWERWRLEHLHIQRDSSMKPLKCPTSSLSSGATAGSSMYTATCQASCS

SMILES | EC50 [1] [nM] | EC50 Ratio (Table 1d, potency ratio of stereoisomer pair (less potent / more potent isomer)) | EC50 (Table 1d, stereoisomer pairs, read-out: EC50) [nM] | EC50 (text to Table 1d, bridge atoms configured into the plane or away from the reader, read-out: potency (EC50)) [nM] | potency (text to Table 1d)
Cc1cc(-n2nc3c(c2-n2ccn(-c4ccc5c(cnn5C)c4F)c2=O)[C@@H]2CCC[C@H](C3)N2C(=O)c2cc3cc([C@H]4CCOC5(CC5)C4)ccc3n2[C@@]2(c3noc(=O)[nH]3)C[C@@H]2C)cc(C)c1F [Compound 509, 3-((1S,2S)-1-(2-((4S,8R)-3-(3-(4-fluoro-1-methyl-1H-indazol-5-yl)-2-oxo-2,3-dihydro-1H-imidazol-1-yl)-2-(4-fluoro-3,5-dimethylphenyl)-4,5,6,7,8,9-hexahydro-2H-4,8-epiminocycloocta [c]pyrazole-10-carbonyl)-5-((S)-4-oxaspiro[2.5]octan-7-yl)-1H-indol-1-yl)-2-methylcyclopropyl)-1,2,4-oxadiazol-5 (4H)-one] | 134 |  |  |  | 
Cc1cc(-n2nc3c(c2-n2ccn(-c4ccc5c(cnn5C)c4F)c2=O)[C@@H]2CC[C@H](C3)N2C(=O)c2cc3cc(N4CC(C)(C)C=CC4=O)ccc3n2[C@@]2(c3noc(=O)[nH]3)C[C@@H]2C)cc(C)c1F [Compound 510] | ≥ 10000 |  |  |  | 
Cc1cc(-n2nc3c(c2-n2ccn(-c4ccc5c(cnn5C)c4F)c2=O)C2CCC([C@H]3F)N2C(=O)c2cc3cc([C@H]4CCOC(C)(C)C4)ccc3n2[C@@]2(c3noc(=O)[nH]3)C[C@@H]2C)cc(C)c1F (stereo partly drawn) [Compound 511, 3-[(1S,2S)-1-[5-[(4S)-2,2-dimethyltetrahydropyran-4-yl]-2-[(7R)-7-fluoro-4-(4-fluoro-3,5-dimethyl-phenyl)-3-[3-(4-fluoro-1-methyl-indazol-5-yl)-2-oxo-imidazol-1-yl]-4,5,11-triazatricyclo[6.2.1.02,6]undeca-2,5-diene-11-carbonyl]indol-1-yl]-2-methyl-cyclopropyl]-4H-1,2,4-oxadiazol-5-one] | 588 |  |  |  | 
Cc1cc(-n2nc3c(c2-n2ccn(-c4ccc5c(cnn5C)c4F)c2=O)[C@@H]2CC[C@H]([C@H]3F)N2C(=O)c2cc3cc([C@H]4CCOC(C)(C)C4)ccc3n2[C@@]2(c3noc(=O)[nH]3)C[C@@H]2C)cc(C)c1F [Compound 512, 3-[(1S,2S)-1-[5-[(4S)-2,2-dimethyltetrahydropyran-4-yl]-2-[(1S,7R,8R)-7-fluoro-4-(4-fluoro-3,5-dimethyl-phenyl)-3-[3-(4-fluoro-1-methyl-indazol-5-yl)-2-oxo-imidazol-1-yl]-4,5,11-triazatricyclo[6.2.1.02,6]undeca-2,5-diene-11-carbonyl]indol-1-yl]-2-methyl-cyclopropyl]-4H-1,2,4-oxadiazol-5-one] | 226 | >83 | 226 | < 1000 | 
Cc1cc(-n2nc3c(c2-n2ccn(-c4ccc5c(cnn5C)c4F)c2=O)[C@H]2CC[C@@H]([C@@H]3F)N2C(=O)c2cc3cc([C@H]4CCOC(C)(C)C4)ccc3n2[C@@]2(c3noc(=O)[nH]3)C[C@@H]2C)cc(C)c1F [Compound 513, 3-[(1S,2S)-1-[5-[(4S)-2,2-dimethyltetrahydropyran-4-yl]-2-[(1R,7S,8S)-7-fluoro-4-(4-fluoro-3,5-dimethyl-phenyl)-3-[3-(4-fluoro-1-methyl-indazol-5-yl)-2-oxo-imidazol-1-yl]-4,5,11-triazatricyclo[6.2.1.02,6]undeca-2,5-diene-11-carbonyl]indol-1-yl]-2-methyl-cyclopropyl]-4H-1,2,4-oxadiazol-5-one] | ≥ 10000 |  |  |  | little or no potency
Cc1cc(-n2nc3c(c2-n2ccn(-c4ccc5c(cnn5C)c4F)c2=O)[C@H]2CC[C@@H]([C@H]3F)N2C(=O)c2cc3cc([C@H]4CCOC(C)(C)C4)ccc3n2[C@@]2(c3noc(=O)[nH]3)C[C@@H]2C)cc(C)c1F [Compound 514, 3-[(1S,2S)-1-[5-[(4S)-2,2-dimethyltetrahydropyran-4-yl]-2-[(1R,7R,8S)-7-fluoro-4-(4-fluoro-3,5-dimethyl-phenyl)-3-[3-(4-fluoro-1-methyl-indazol-5-yl)-2-oxo-imidazol-1-yl]-4,5,11-triazatricyclo[6.2.1.02,6]undeca-2,5-diene-11-carbonyl]indol-1-yl]-2-methyl-cyclopropyl]-4H-1,2,4-oxadiazol-5-one] | ≥ 10000 |  |  |  | little or no potency
